Source: patent US7335770B2, “Triazine compounds and their analogs, compositions, and methods” (Reddy U5 Therapeutics, Inc., priority 2004, dated 2008)
Where two headings read alike, the source gives them in different places.

Tested on: smooth muscle cells (SMC)
Assay: anti-proliferation assay (perlecan)
Assay type: cell-based
Conditions: for activity in anti-proliferation assay (Perlecan), in words: using the same activity scale used in Table 3
Protocol: The activity scale used in Table 3 as follows (numbers are inclusive): “+++” represents IC50 of less than about 3 μM; “++” represents IC50 of between about 3 and about 7 μM; and “+” represents IC50 of greater than about 7 μM. In addition, compounds, to include compositions thereof, encompassed within the scope of structures Ia-XXIVa, respectively, or listed in Tables 1A and 1E may be likewise employed in this embodiment and/or aspect of the present invention. Further, any hydrogen atoms that are required for any atom to attain its usual valence in a structure presented in Table 3, whether a carbon atom or a heteroatom, should be inferred if it is not specifically indicated.
In addition to the above compounds, the following compounds and compositions comprising these compounds are active in an anti-proliferation assay (Perlecan). These compounds and compositions comprising these compounds are, among other things, generally useful for treating cardiovascular disorders associated with proliferative activity. Specifically, these compounds include N^2-cycloheptyl-N^4-(3-fluoro-4-methoxyphenyl)-N^6-methyl-N^6-(1-methyl-piperidin-4-yl)-1,3,5-triazine-2,4,6-triamine, and N^2-cycloheptyl-N^4-methyl-N^4-(1-methyl-piperidin-4-yl)-N^6-naphthalen-2-yl-1,3,5-triazine-2,4,6-triamine.
Methods for identifying the activity and screening for one or more of these compounds or molecules that induce synthesis of proteoglycans such as HSPG (heparan sulfate proteoglycan) are taught in U.S. patent application Ser. No. 10/091,357, which is incorporated herein in its entirety. Assays of effects of compounds in vivo are also taught in the incorporated references and are known to those skilled in the art. In general, methods comprise the addition of such compounds to assays and measurement of HSPG synthesis including, but not limited to, the production of syndecans, glypicans and perlecans, for example, syndecans 1, 2 and 4; and glypican-1. Other assays that can be used to determine the activity of the compounds of the present invention include other methods for measuring the induction of perlecan synthesis. For example, in one assay, perlecan is induced in cells by certain inducers, and the response is measured. Compounds of the present invention are then added to a replicate assay and the effect on perlecan induction is determined. Using such methods, compounds are determined that can either inhibit perlecan, elevate induction of perlecan, or that have no effect at all. Those compounds that are effective as therapeutic agents can then be used in animals, humans or patients with cellular proliferation disease aspects, such as vascular-associated diseases or SMC proliferation pathologies.
Another assay for determining compounds having SMC effects comprises adding a composition suspected of affecting SMC proliferation to smooth muscle cells in growth medium or serum-free medium. The change in cell proliferation can be measured by methods known to those skilled in the art, such as incorporation of labeled nucleotides into dividing cells' DNA, and compared to the proliferation of cells which are not treated with the compound. Other measurements include directly determining levels of HSPG synthesis by measuring the amount or change in amount of HSPG such as with ELISA for HSPGs, and compared to the amount of HSPG synthesis in untreated cells. Other indirect or direct measurement are contemplated by the present invention and are known to those skilled in the art. For example, such methods include, but are not limited to, measurement of RNA levels, RT-PCR, Northern blotting, Western blotting promoter-based assays to identify compounds that affect one or more proteoglycans and assays for proteoglycan biological activity shown by recombinant proteins, partially purified proteins, or lysates from cells expressing proteoglycans in the presence or absence of compounds of interest.

[1] = anti-proliferation assay (perlecan), class of IC50, read-out: Activity (note 1)
[2] = anti-proliferation assay (perlecan), some cells print no unit, read-out: Avg IC-50

| Compound | activity in anti-proliferation assay (Perlecan), in words | IC50 [1] [µM] | IC50 [2] [µM] | other results |
| --- | --- | --- | --- | --- |
| CN1CCC(N(C)c2nc(Nc3cccc([N+](=O)[O-])c3)nc(NC3CCCCCC3)n2)CC1 [N-Cycloheptyl-N′-methyl-N′-(1-methyl-piperidin-4-yl)-N″-(3-nitro-phenyl)-[1,3,5]triazine-2,4,6-triamine] | high activity | – | – | – |
| COc1ccc(Nc2nc(NC3CCCCCC3)nc(Sc3c(Cl)cccc3Cl)n2)cc1Cl [N-(3-Chloro-4-methoxy-phenyl)-N′-cycloheptyl-6-(2,6-dichloro-phenylsulfanyl)-[1,3,5]triazine-2,4-diamine] | high activity | – | – | – |
| CCOc1nc(Nc2ccc(OC)c(F)c2)nc(NC2CCCCCC2)n1 [drawing 601, N-Cycloheptyl-6-ethoxy-N′-(3-fluoro--4-methoxy-phenyl)-[1,3,5]tri-azine-2,4-diamine] | – | 3 to 7 | 4.5 | – |
| COc1ccc(Nc2nc(NCCNC(=O)OC(C)(C)C)nc(NC3CCCCCC3)n2)cc1Cl [{2-[4-(3-Chloro-4-methoxy-phenylamino)-6-cycloheptylamino-[1,3,5]triazin-2-ylamino]-ethyl}-carbamic acid tert-butyl ester] | high activity | – | – | – |
| CCN1CCCC1CNc1nc(Cl)nc(Nc2ccc(OC)c(F)c2)n1 (stereo not drawn) [6-Chloro-N-(1-ethyl-pyrrolidin-2-yl-methyl)-N′-(3-fluoro-4-meth-oxy-phenyl)-[1,3,5]triazine-2,4-di-amine] | – | 3 to 7 | 6.5 | – |
| COc1ccc(Nc2nc(NC(C)C)nc(Oc3ccc(C#CC(C)(C)O)cc3)n2)cc1Cl [drawing 584, 4-{4-[4-(3-Chloro-4-methoxy-phenyl-amino)-6-isopropylamino-[1,3,5]tri-azin-2-yloxy]-phenyl}-2-meth-yl-but-3-yn-2-ol] | – | 3 to 7 | 3.35 | – |
| COc1ccc(Nc2nc(NCCN)nc(NC3CCCCCC3)n2)cc1Cl [drawing 589, N-(2-Amino-ethyl)-N′-(3-Chloro-4-meth-oxy-phenyl)-N″-cyclo-heptyl-[1,3,5]triazine-2,4,6-triamine] | – | < 3 | 1 | – |
| COc1ccc(Nc2nc(NC3CCCCCC3)nc(NC3CCN(C(=O)CCCCC4SCC5NC(=O)NC54)CC3)n2)cc1Cl (stereo not drawn) [drawing 595] | – | – | – | IC50 (read-out: Activity (note 1)): < 3 µM; IC50 (read-out: Avg IC-50): 0.71 µM |
| CCN1CCCC1CNc1nc(Nc2ccc(C)c(F)c2)nc(NC2CCCCCC2)n1 (stereo not drawn) [drawing 591, N-Cycloheptyl-N′-(1-ethyl-pyr-rolidin-2-ylmethyl)-N″-(3-fluoro--4-methyl-phenyl)-[1,3,5]tri-azine-2,4,6-triamine] | – | < 3 | 2.78 | – |
| COc1ccc(Nc2nc(NC3CCCCCC3)nc(-c3ccc(O)cc3O)n2)cc1Cl [4-[4-(3-Chloro-4-methoxy-phenylamino)-6-cycloheptylamino-[1,3,5]triazin-2-yl]-benzene-1,3-diol] | high activity | – | – | – |
| COc1ccc(Nc2nc(NC3CCCCCC3)nc(Oc3cccnc3)n2)cc1Cl [N-(3-Chloro-4-methoxy-phenyl)-N′-cycloheptyl-6-(pyridin-3-yloxy)-[1,3,5]triazine-2,4-diamine] | high activity | – | – | – |
| COc1ccc(-c2nc(Nc3ccc(OC)c(Cl)c3)nc(NC3CCCCCC3)n2)c(OC)c1 [N-(3-Chloro-4-methoxy-phenyl)-N′-cycloheptyl-6-(2,4-dimethoxy-phenyl)-[1,3,5]triazine-2,4-diamine] | high activity | – | – | – |
| COc1ccc(Nc2nc(NC3CCCCCC3)nc(OC3CCN(C)CC3)n2)cc1Cl [N-(3-Chloro-4-methoxy-phenyl)-N′-cycloheptyl-6-(1-methyl-piperidin-4-yloxy)-[1,3,5]triazine-2,4-diamine] | high activity | – | – | – |
| COc1ccc(Nc2nc(NC3CCCCCC3)nc(Sc3ccccc3C(C)(C)C)n2)cc1Cl [6-(2-tert-Butyl-phenylsulfanyl)-N-(3-chloro-4-methoxy-phenyl)-N′-cycloheptyl-[1,3,5]triazine-2,4-diamine] | high activity | – | – | – |
| CCN1CCCC1CNc1nc(Nc2ccc(C)c(F)c2)nc(NC2CCCCCC2)n1 (stereo not drawn) [N-Cycloheptyl-N′-(1-ethyl-pyrrolidin-2-ylmethyl)-N″-(3-fluoro-4-methyl-phenyl)-[1,3,5]triazine-2,4,6-triamine] | high activity | – | – | – |
| COc1cc(OC)c(-c2nc(Nc3ccc(OC)c(Cl)c3)nc(NC3CCCCCC3)n2)c(OC)c1 [N-(3-Chloro-4-methoxy-phenyl)-N′-cycloheptyl-6-(2,4,6-trimethoxy-phenyl)-[1,3,5]triazine-2,4-diamine] | high activity | – | – | – |
| COc1ccc(Nc2nc(NC3CCCCCC3)nc(OC(C)C)n2)cc1Cl [drawing 578, N-(3-Chloro-4-methoxy-phenyl)-N′-cyclo-heptyl-6-isopropoxy-[1,3,5]tri-azine-2,4-diamine] | – | 3 to 7 | 6.5 | – |
| Cc1ccc(Nc2nc(NC3CCCCCC3)nc(N(C)C3CCN(C)CC3)n2)cc1F [drawing 592, N-Cycloheptyl-N′-(3-fluoro-4-meth-yl-phenyl)-N″-methyl-N″-(1-meth-yl-piperidin-4-yl)-[1,3,5]tri-azine-2,4,6-triamine] | – | < 3 | 2.25 | – |
| COc1ccc(Nc2nc(NC3CCCCCC3)nc(Oc3ccc(C#CC(C)(C)O)cc3)n2)cc1Cl [4-{4-[4-(3-Chloro-4-methoxy-phenylamino)-6-cycloheptylamino-[1,3,5]triazin-2-yloxy]-phenyl}-2-methyl-but-3-yn-2-ol] | high activity | – | – | – |
| COc1ccc(Nc2nc(NC3CCCCCC3)nc(OC3CCN(C)CC3)n2)cc1Cl [drawing 576, N-(3-Chloro-4-methoxy-phenyl)-N′-cyclo-heptyl-6-(1-methyl-piper-idin-4-yloxy)-[1,3,5]triazine-2,4-di-amine] | – | 3 to 7 | 5.7 | – |
| CCN1CCCC1CNc1nc(NC2CCCCCC2)nc(NC2CCC(O)CC2)n1 (stereo not drawn) [drawing 599, 4-{4-Cycloheptylamino-6-[(1-eth-yl-pyrrolidin-2-ylmethyl)-amino]-[1,3,5]triazin-2-ylamino}-cyclo-hexanol] | – | 3 to 7 | 4.1 | – |
| COc1ccc(Nc2nc(NC3CCCCCC3)nc(Oc3ccccc3I)n2)cc1Cl [N-(3-Chloro-4-methoxy-phenyl)-N′-cycloheptyl-6-(2-iodo-phenoxy)-[1,3,5]triazine-2,4-diamine] | high activity | – | – | – |
| COc1ccc(Nc2nc(NC3CCCCCC3)nc(Oc3ccccc3C#CC(C)(C)O)n2)cc1Cl [4-{2-[4-(3-Chloro-4-methoxy-phenylamino)-6-cycloheptylamino-[1,3,5]triazin-2-yloxy]-phenyl}-2-methyl-but-3-yn-2-ol] | high activity | – | – | – |
| COc1ccc(Nc2nc(NC3CCCCCC3)nc(Oc3ccc(I)cc3)n2)cc1Cl [N-(3-Chloro-4-methoxy-phenyl)-N′-cycloheptyl-6-(4-iodo-phenoxy)-[1,3,5]triazine-2,4-diamine] | high activity | – | – | – |
| CCN1CCCC1CNc1nc(NC2CCCCCC2)nc(NC2CCC(O)CC2)n1 (stereo not drawn) [4-{4-Cycloheptylamino-6-[(1-ethyl-pyrrolidin-2-ylmethyl)-amino]-[1,3,5]triazin-2-ylamino}-cyclohexanol] | high activity | – | – | – |
| COc1ccc(Nc2nc(NC3CCCCCC3)nc(Oc3cccc(C)n3)n2)cc1Cl [N-(3-Chloro-4-methoxy-phenyl)-N′-cycloheptyl-6-(6-methyl-pyridin-2-yloxy)-[1,3,5]triazine-2,4-diamine] | high activity | – | – | – |
